Experimental data published in paper PMC8474110 (Journal of Medicinal Chemistry, 2021).
Counter-ions that a name gives are not always drawn. Like-named read-outs stand apart in the source and are kept apart here.

Key:
σ2 receptor = target: T1, σ2 receptor (Cavia porcellus, UniProt H0V073); conditions: guinea pig brain membranes; cited from earlier work
T1 construct: the guinea pig brain membranes (300 μL, 360 μg protein) were incubated for 120 min at room temperature with 3 nM [^3H]-DTG; from tissue; host or cells: guinea pig brain membranes
T1 sequence (H0V073 1-176): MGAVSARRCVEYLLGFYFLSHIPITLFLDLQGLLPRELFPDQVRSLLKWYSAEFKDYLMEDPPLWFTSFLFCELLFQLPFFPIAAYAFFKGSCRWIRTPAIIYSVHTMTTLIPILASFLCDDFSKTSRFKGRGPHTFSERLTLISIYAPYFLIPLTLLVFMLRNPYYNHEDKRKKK

human UM 92-1 cells = test: Crystal violet proliferation assay in human UM 92-1 cells; format: cell-based; conditions: for effect on 92-1 cell proliferation compared to the vehicle control: VPA 2 mM, HP 10 μM, (±)-HP-mII 30 μM (predicted IC50 values); for effect alone on proliferation of human UM 92-1 cells: 2 μM
Procedure: Then, actions on cell proliferation were examined by crystal violet staining (Figure 6).
HREC and human 92-1 cell (seeded 4 × 10^3 and grown for 24 h at optimum culture conditions) proliferation was measured using crystal violet staining after treatment in 96-well plates with the indicated concentrations of chemicals for an additional 48 h. Control cells received an equal volume of vehicle (DMSO). At the end of the treatment, each well was washed with phosphate-buffered saline (PBS). Following this, the cells were fixed (in 4% paraformaldehyde) and stained with crystal violet solution (0.5% in 20% methanol for HREC or 1% aqueous solution for 92-1 cells). Subsequently, the plate was washed with water and left to dry. Crystal violet staining was evaluated by measuring the absorbance at 570 nm or 590 nm, after crystal violet extraction with 10% acetic acid (at room temperature for 10 min), with a microplate reader with the plate reader (Synergy 2-BioTek). For quantification, each assay was carried out in triplicate.

HREC = conditions: cited from earlier work
inoperable UM patients = tested on: inoperable UM patients; design: method as in PMID 25315663, PMID 23218699, PMID 21880788; conditions: at 4 months; cited from earlier work

CCCC(CCC)C(=O)O[C@H](CCCN1CCC(O)(c2ccc(Cl)cc2)CC1)c1ccc(F)cc1 (as salt: oxalate) [(+)-1]
melting point: 159 to 164 °C

CCCC(CCC)C(=O)O[C@@H](CCCN1CCC(O)(c2ccc(Cl)cc2)CC1)c1ccc(F)cc1 (as salt: oxalate) [(−)-1]
melting point: 158 to 160 °C

OC(CCCN1CCC(O)(c2ccc(Cl)cc2)CC1)c1ccc(F)cc1 (racemic) [(±)-HP-mII, haloperidol metabolite II]
Ki (σ2 receptor): 2.4 ± 0.7 nM | effect on 92-1 cell proliferation compared to the vehicle control (human UM 92-1 cells): significantly inhibited | pIC50 ± SE, MTT viability test on HREC (HREC; 48 h): 3.89 ± 0.04 | pIC50 ± SE, MTT viability test on HREC (HREC; 72 h): 4.16 ± 0.03

O[C@@H](CCCN1CCC(O)(c2ccc(Cl)cc2)CC1)c1ccc(F)cc1 [(−)-4]
Ki (σ2 receptor): 9.8 ± 1.8 nM

c1ccc(CCN2CCCCC2)cc1 [AC927, 1-phenethylpiperidine, reference compound]
effect alone on proliferation of human UM 92-1 cells (human UM 92-1 cells): promote

CC(C)=CCN1CC[C@]2(C)c3cc(O)ccc3C[C@H]1[C@H]2C [PTZ, (+)-pentazocine, reference compound]
effect alone on proliferation of human UM 92-1 cells (human UM 92-1 cells): promote

CCCC(CCC)C(=O)O [VPA, valproic acid]
effect on 92-1 cell proliferation compared to the vehicle control (human UM 92-1 cells): significantly inhibited | pIC50 ± SE, MTT viability test on HREC (HREC; 24 h): 2.91 ± 0.01 | pIC50 ± SE, MTT viability test on HREC (HREC; 48 h): 2.84 ± 0.03 | pIC50 ± SE, MTT viability test on HREC (HREC; 72 h): 2.86 ± 0.01

AFL: VEGF-trap aflibercept, a popular drug in ophthalmology
progression-free survival (inoperable UM patients): 50%
